# Measurements as given in patent US8436011B2, “Pyridinopyridinone derivatives, preparation thereof and therapeutic use thereof” (Sanofi, priority 2008, dated 2013).
# Molecular target: T1, fusion protein Tel/PDGF-Rβ (BaF3 Tel/PDGF cells) (Homo sapiens, UniProt P09619)
# T1 construct: the transmembrane and intracellular part of the PDGF-Rβ receptor; N-terminal part of the Tel transcription factor (ETV6); expressed in transfected cells; host or cells: murine haematopoietic cell line BaF/3; the other entry of the earlier key: ETV6 (P41212, Transcription factor ETV6)
# Test: Inhibition of PDGF-Rβ tyrosine kinase activity: proliferation of BaF3 Tel/PDGF cells (CellTiter-Glo, 72 h)
# Assay type: cell-based, murine
# Conditions: 72 hours incubation, read-out: IC50 (concentration that inhibits 50% of the proliferation of the BaF3 Tel/PDGF cells)
# Procedure: Measurement of Inhibition of the Tyrosine Kinase Activity of the PDGF Beta (PDGF-Rβ) (Baf-3 tel/PDGFIRβ) Receptor:
# This test consists in evaluating the effects of the compounds on the tyrosine kinase activity of the PDGF beta receptor.
# The inhibitory effect of the compounds according to the invention towards the tyrosine kinase activity of the PDGF-R receptor was evaluated on the murine haematopoietic cell line BaF/3 transfected with a plasmid coding for the fusion protein Tel/PDGF-Rβ. This fusion protein is found in chronic myelomonocytic myeloid leukaemias (CMML). It comprises the N-terminal part of the Tel transcription factor and the transmembrane and intracellular part of the PDGF-Rβ receptor. This fusion protein is present in dimerized form (presence of an oligomerization domain in the N-terminal part of Tel) and, as a result, leads to constitutive activity of the kinase domain of PDGF-Rβ. This line BaF3 Tel/PDGF has been described in the literature several times and especially, in detailed manner, in the article by M. Carroll et al., PNAS, 1996, 93, 14845-14850.
# The BaF3 Tel/PDGF cells are washed with phosphate buffer and inoculated in 96-well plates, at a density of 5×10^4 cells/ml ([…]), in RPMI 1640 containing 10% FCS, in the presence or absence of the test compounds. After incubation for 72 hours, the viable cells are quantified by measuring the cellular ATP by means of the CellTiter-Glo® kit (Promega, Cat G7571). The cells are treated according to the instructions given by the kit manufacturer, and the luminescence is measured using a Luminoskan (Ascent, Labsystem) with the following parameters: measurement: single; integration time: 1000 ms, lag time: 5 s.
# It is thus seen that the compounds according to the invention have inhibitory activity on the tyrosine kinase activity of PDGF-Rβ. This activity is given by the concentration that inhibits 50% of the proliferation of the BaF3 Tel/PDGF cells (IC50).
# T1 sequence (P09619 with tags, fused parts or gaps): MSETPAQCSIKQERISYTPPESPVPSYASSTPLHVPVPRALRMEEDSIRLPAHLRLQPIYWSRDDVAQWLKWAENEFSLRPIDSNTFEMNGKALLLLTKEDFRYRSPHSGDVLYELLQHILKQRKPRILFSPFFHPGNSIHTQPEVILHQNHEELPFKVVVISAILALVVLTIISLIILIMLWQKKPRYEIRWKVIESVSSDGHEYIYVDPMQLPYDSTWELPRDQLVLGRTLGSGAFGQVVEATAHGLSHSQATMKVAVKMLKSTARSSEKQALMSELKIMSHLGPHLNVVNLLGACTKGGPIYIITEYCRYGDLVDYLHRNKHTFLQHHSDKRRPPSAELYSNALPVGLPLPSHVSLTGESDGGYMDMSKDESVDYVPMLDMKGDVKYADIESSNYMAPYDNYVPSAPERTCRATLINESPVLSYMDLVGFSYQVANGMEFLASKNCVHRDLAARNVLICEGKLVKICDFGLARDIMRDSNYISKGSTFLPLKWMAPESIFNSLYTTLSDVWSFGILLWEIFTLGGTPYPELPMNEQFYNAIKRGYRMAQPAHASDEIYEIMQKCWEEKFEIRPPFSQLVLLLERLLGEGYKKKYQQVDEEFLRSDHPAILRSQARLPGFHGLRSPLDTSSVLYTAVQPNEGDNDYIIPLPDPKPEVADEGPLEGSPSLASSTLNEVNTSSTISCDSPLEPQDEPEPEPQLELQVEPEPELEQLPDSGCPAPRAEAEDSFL
row,SMILES,IC50 [nM]
1,"CCN1CC(F)(F)C[C@H]1CNC(=O)Cc1ccc(-c2ccc3c(=O)c(C(=O)NC)c(N)n(CC)c3n2)cc1 [compound 24, 2-amino-1-ethyl-7-{4-[2-({[(2S)-1-ethyl-4,4-difluoropyrrolidin-2-yl]methyl}-amino)-2-oxoethyl]phenyl}-N-methyl-4-oxo-1,4-dihydro-1,8-naphthyridine-3-carboxamide]",2
2,"CCn1c(N)c(C(=O)NC)c(=O)c2ccc(-c3ccc(CC(=O)NCC4COCCN4C4CC4)cc3)nc21 (centres unmarked) [compound 33, 2-amino-7-[4-(2-{[(4-cyclopropylmorpholin-3-yl)methyl]amino}-2-oxoethyl)phenyl]-1-ethyl-N-methyl-4-oxo-1,4-dihydro-1,8-naphthyridine-3-carboxamide]",4.7
